In brackets after ≈: the same amount, converted by molar mass. Activity calls are given as the source filed them. The rule behind the calls is not given here.
Legend:
Malassezia = experiment: Antimicrobial activity against Pityrosporum ovale ATCC 14521 after 3 days by two fold serial broth dilution method; type: functional; settings: ATCC 14521, 72 h
Escherichia coli = experiment: Antimicrobial activity against Escherichia coli ATCC 9637 after 2 days by two fold serial broth dilution method; type: functional, organism-based
Klebsiella aerogenes = experiment: Antimicrobial activity against Enterobacter aerogenes ATCC 13048 after 2 days by two fold serial broth dilution method; type: functional, organism-based
Saccharomyces cerevisiae = experiment: Antimicrobial activity against Saccharomyces cerevisiae ATCC 7754 after 2 days by two fold serial broth dilution method; type: functional, organism-based
Pseudomonas aeruginosa = experiment: Antimicrobial activity against Pseudomonas aeruginosa ATCC 10145 after 2 days by two fold serial broth dilution method; type: functional, organism-based

Compound	MIC (Malassezia)	further results
CCCCCCCCC/C=C/C(C)=O	100 µg/mL (≈ 509 µM)	Activity (Escherichia coli): inactive; Activity (Klebsiella aerogenes): inactive; Activity (Saccharomyces cerevisiae): inactive; Activity (Pseudomonas aeruginosa): inactive
CCCCCCC/C=C/C(C)=O	100 µg/mL (≈ 594 µM)	–
CCCCCCCC/C=C/C(C)=O	100 µg/mL (≈ 549 µM)	–

The next lines start with results.

MIC (Malassezia)	Compound	further results
> 800 µg/mL	CCCCCCCCCCCC/C=C/C(C)=O	–
> 800 µg/mL	CCCCCCCCCCCCC/C=C/C(C)=O	–
100 µg/mL (≈ 475 µM)	CCCCCCCCCC/C=C/C(C)=O	–
400 µg/mL (≈ 1780 µM)	CCCCCCCCCCC/C=C/C(C)=O	–

Source: ChEMBL document CHEMBL1155431, “Antimicrobial activity of long-chain (E)-3-alken-2-ones” (2010)
